Measured values reported in ChEMBL document CHEMBL1134861, “Improving metabolic stability of phosphodiesterase-4 inhibitors containing a substituted catechol: prevention of reactive intermediate formation and covalent binding” (Bioorg Med Chem Lett, 2002).

Species on record: Rattus norvegicus
Experiment: In vitro metabolism of radiolabeled compound at 10 uM was performed in rat microsomal protein containing a NADPH-regenerating system for 1 hr at 37 degree C
Format: functional

| Covalent binding | Covalent binding (tested as the 3H-labelled form) | Structure (SMILES) |
| --- | --- | --- |
| 0.45% | – | Cc1cncc(C)c1CC(c1ccc(C(O)(C(F)(F)F)C(F)(F)F)cc1)c1ccc(OCF)c(OC2CCC2)c1 (stereo not given) |
| < 0.05% | – | [O-][n+]1ccc(CC(c2ccc(C(O)(C(F)(F)F)C(F)(F)F)cc2)c2ccc(OC(F)F)c(OC(F)F)c2)cc1 (stereo not given) |
| < 0.05% | – | Cc1cncc(C)c1CC(c1ccc(C(O)(C(F)(F)F)C(F)(F)F)cc1)c1ccc(OCF)c(OC(F)F)c1 (stereo not given) |
| 2.9% | – | COc1ccc(C(Cc2c(C)cncc2C)c2ccc(C(O)(C(F)(F)F)C(F)(F)F)cc2)cc1OC1CCCC1 (stereo not given) |
| – | 3.1% | COc1ccc([C@H](Cc2ccncc2)c2ccc(C(O)(C(F)(F)F)C(F)(F)F)cc2)cc1OC1CCCC1 |
